# The source made the active and inactive calls. The rule behind the calls is not given here.
# System: CCRIS mutagenicity, Ames/micronucleus/aberration tests
# Experiment: CCRIS mutagenicity studies
structure (smiles),measurement,setting,value
Cc1c(C(=O)O)c(O)cc2c1C(=O)c1c(O)c([C@@H]3O[C@@H](CO)[C@H](O)[C@@H](O)[C@H]3O)c(O)c(O)c1C2=O,mutagenic call,"Test System: AMES SALMONELLA TYPHIMURIUM, Strain/Indicator: TA100, Method: PREINCUBATION",active; positive
CC1=Cc2nc3c(ccc4ccccc43)c(C)c2[C@H](O)[C@H]1O,mutagenic call,"Test System: AMES SALMONELLA TYPHIMURIUM, Strain/Indicator: TA100, Metabolic Activation: RAT, LIVER, S-9, AROCLOR 1254, Method: STANDARD PLATE",active; positive
CC(=O)OC[C@H]1OC(OC(C)=O)[C@H](NC(=O)N(C)N=O)[C@@H](OC(C)=O)[C@@H]1OC(C)=O (stereo partly drawn),mutagenic call,"Test System: CHINESE HAMSTER V-79, Strain/Indicator: V-79/8-AZAGUANINE, Metabolic Activation: NONE, Method: STANDARD PLATE",active; positive

# Source: PubChem BioAssay AID1259407 (Chemical Carcinogenesis Research Information System (CCRIS), 2018)
